Results: patent US20080027005A1, “PEPTIDES EFFECTIVE IN THE TREATMENT OF TUMORS AND OTHER CONDITIONS REQUIRING THE REMOVAL OR DESTRUCTION OF CELLS” (priority 2006, published 2008)
Where no end group is shown, it is not given here.

Test system: prostate
Assay: Effect of S05B Peptides on tissue at sites of injection: intraprostatic infusion in rats, histology and prostate volume
Type: in vivo, Male Sprague-Dawley rats
Details: for Histological findings in prostate of treated rats: rat prostate after intraprostatic infusion 1.0 mg/kg, controls minimal or absent changes; for Calculated Mean Volume (mm^3) At 7 Days / Reduction in Mean Volume Compared to Controls / Histological Changes of Cell Death at 24 Hours / Histological Changes of Cell Death at 72 Hours: rat prostate; for Calculated Mean Volume (mm^3) At 7 Days: 7 days after intraprostatic infusion 1.0 mg/kg, V=4/3π(D/2)^3 from mean cross-sectional diameters, PBS control 519; for Reduction in Mean Volume Compared to Controls: 7 days, compared to PBS injection only; for Histological Changes of Cell Death at 24 Hours / Histological Changes of Cell Death at 72 Hours: intraprostatic infusion 300 μl of 1 mg/mL in PBS pH 7.4 (1.0 mg/kg), H & E sections
Method: The purpose of this example was to determine the effect of S05B Peptides on tissue at sites of injection.
Male Sprague-Dawley rats (300 gram weight range) were anesthetized with ether and given one of the above S05B Peptides by intraprostatic infusion, a control injection of normal saline or no injection after open surgical visualization of the prostate. The injections consisted of 300 μl of the S05B Peptide 1 mg/mL in PBS pH 7.4. (1.0 mg/kg) (n=85). Rats were painlessly sacrificed after 24 hours (n=18), 72 hours (n=35) and 7 days (n=32). Prostate glands were dissected, fixed in 10% buffered formalin for 24 hours, embedded in paraffin, sectioned, and stained with H & E. For each animal the entire prostate gland was embedded and sectioned. All stained sections were examined histologically. For each prostate at least 2 histological sections were examined, and for each histological section from the 7 day group two cross-sectional diameters (D) at 90° from each other were measured (total of >8 measurements per prostate). The mean of the cross-sectional diameters (D) for each group was used to estimate volume according to V=4/3π(D/2)^3 and the mean volume calculated for each group. Histological changes were assessed on the following scale:
+++ Present, Moderate and Diffuse
++++ Present, Diffuse and Extensive

Substance | Histological findings in prostate of treated rats | Calculated Mean Volume (mm^3) At 7 Days | Reduction in Mean Volume Compared to Controls | Histological Changes of Cell Death at 24 Hours | Histological Changes of Cell Death at 72 Hours
DQQVLS [S05B-2] | extensive cell death, necrosis, loss of glandular epithelium and atrophy | 289 mm^3 | 44% | +++ | +++
IDQQVL [S05B-4] | extensive cell death, necrosis, loss of glandular epithelium and atrophy | 358 mm^3 | 31% | ++ | ++
DQQVLSRI [S05B-3] | extensive cell death, necrosis, loss of glandular epithelium and atrophy | 289 mm^3 | 44% | +++ | +++
